Measured values from US20130150434A1 (SOMAXON PHARMACEUTICALS, INC., priority 2006, published 2013).

Columns and labels:
[1] = tested on: chronic primary insomnia patients with sleep maintenance difficulties; assay: Phase III study of doxepin, 8-hour PSG efficacy variables (WASO, TST, SE, LPS); settings: ITT
Text: Patients with at least a 3-month history of primary insomnia, according to Diagnostic and Statistical Manual of Mental Disorders, Fourth Edition Text Revision (DSM-IV-TR)-defined primary insomnia were enrolled.
Patients were screened (Visit 1) to determine study eligibility and asked to discontinue any protocol-disallowed prescription or over-the-counter (OTC) medications used as sleep medication. At the beginning of the first week (polysomnography [PSG] Screening, Visit 2), eligible patients began two weeks of single-blind placebo dosing and had two consecutive nights of 8-hour PSG recording in the sleep center. Patients were required to meet the PSG screening criteria to remain eligible for the study. Patients were allowed to leave the sleep center during the day after the PSG Screening nights and continued to take single-blind placebo after PSG Screening (Visit 2) for five consecutive nights at home.
Patients were allowed to leave the sleep center during the day after the PSG nights and continued taking single-blind placebo for five consecutive nights at home.
After the PSG Screening and Baseline periods, patients began a 35-day double-blind treatment period during which they were given study drug supplies at each scheduled visit (Visits 4, 5, and 6). The scheduled study visits consisted of two consecutive nights of 8-hour PSG recording in the sleep center and next day assessments to assess sedative efficacy. Patients were asked to complete hangover/residual effects assessments, morning and evening questionnaires, and the Benzodiazepine Withdrawal Symptom Questionnaire (BWSQ) at each of these visits.
Primary Efficacy: The primary efficacy variable was wake after sleep onset (WASO) obtained on Night 1 as determined by PSG recordings using the ITT analysis set.
Additional PSG efficacy variables: Additional efficacy variables obtained on the first PSG assessment nights (Nights 1 and 29) included WASO (Night 29), wake time during sleep (WTDS), total sleep time (TST), sleep efficiency (SE), including whole night, third of the night, and by hour, and latency to persistent sleep (LPS), latency to Stage 2 sleep, number of awakenings after sleep onset (NAASO), total wake time (TWT), wake time after sleep (WTAS), and, sleep architecture including percentage and minutes of Stage 1, 2, and 3/4 non-rapid eye movement (NREM) sleep, percentage and minutes of rapid eye movement (REM) sleep, and latency to REM sleep.
Methods used to analyze other endpoints were the same as those used to analyze WASO. For LPS, latency to REM sleep, latency to Stage 2 sleep, and LSO, data were expected to be log-normally distributed and were analyzed using log-transformed values (base 10). The safety data were analyzed primarily using descriptive statistical methods.
All efficacy analyses were performed on the Intent-to-treat (ITT) analysis set. […] Data were analyzed as randomized and based on observed cases.

[2] = tested on: chronic primary insomnia patients with sleep maintenance difficulties; assay: Phase III study of doxepin, rebound insomnia by PSG during the 2-day discontinuation period; type: in vivo, human; settings: for WASO (rebound insomnia analysis), Median: Baseline = worst WASO value of Nights −6 and −5; for WASO (rebound insomnia analysis), Mean (SD): Baseline = worst WASO value of Nights −6 and −5 from Visit 3; for WASO, Change from Baseline to Visit 7, Night 36, Median / WASO, Change from Baseline to Visit 7, Night 37, Median / WASO, Change from Baseline to Visit 7, Night 36, Mean (SD) / WASO, Change from Baseline to Visit 7, Night 37, Mean (SD): discontinuation
Text: The term “rebound insomnia” refers to the common occurrence that a person may have more trouble sleeping the first few nights after a sedative medicine is stopped than before starting the medicine. After more than a few days' use, discontinuing a hypnotic or sedative medication can make the original sleep problem worse and can cause an increase anxiety. Rebound insomnia may be measured as the mean change in mean wake time after sleep onset (WASO) from baseline to the first night of discontinuation.
Patients were discharged from the sleep center after all final study-related procedures had been completed on the Final Study Day (Day 38, Early Termination [ET]).
Safety: Safety was assessed based on AEs, clinical laboratory tests (hematology, serum chemistry, and urinalysis), vital signs, physical examinations, neurological assessments, 12-lead ECGs, and ratings of hangover/residual effects (digit-symbol substitution test (DSST), symbol copying test (SCT), and the visual analog scale (VAS) for sleepiness), assessment of rebound insomnia using PSG recordings during the discontinuation period, and withdrawal symptoms using the benzodiazepine withdrawal symptom questionnaire (BWSQ).

[3] = doxepin 6 mg, Night 1, p<0.0001 vs placebo
[4] = doxepin 6 mg, Night 15, p 0.0157 vs placebo
[5] = doxepin 6 mg, Night 29, p 0.0003 vs placebo
[6] = Doxepin HCl 3 mg group, Night 36, N = 67 evaluable
[7] = Doxepin HCl 3 mg group, Night 36 and Night 37, N = 67 evaluable
[8] = Doxepin HCl 3 mg group, Visit 7, Night 37 (discontinuation)
[9] = Doxepin HCl 6 mg group, Night 36, N = 68 evaluable
[10] = Doxepin HCl 6 mg group, Night 36 and Night 37, N = 68 evaluable
[11] = Doxepin HCl 6 mg group, Visit 7, Night 37 (discontinuation)

Rebound insomnia (mean change in mean WASO from baseline to the first night of discontinuation) ([2]; 3 mg and 6 mg, 2-day discontinuation period following abrupt discontinuation of 35 nights of treatment): no rebound insomnia
Largest percentage of patients experiencing rebound effects ([2]; 3 mg group at night 36, as measured by mean change in WASO): 15%
WASO (rebound insomnia analysis), Median ([2]; Doxepin HCl 3 mg group): 79.5 min
WASO (rebound insomnia analysis), Mean (SD) ([2]; Doxepin HCl 3 mg group): 83.5 (41.35) minutes
Rebound insomnia frequency: patients with LPS change from Baseline ≧20 minutes at Visit 7, count (%) [2, 6]: 7 (10%)
Rebound insomnia frequency: patients with TST change from Baseline ≦−30 minutes at Visit 7, count (%) [2, 6]: 9 (13%)
Rebound insomnia frequency: patients with WASO change from Baseline ≧35 minutes at Visit 7, count (%) [2, 6]: 10 (15%)
Rebound insomnia frequency: patients with LPS change from Baseline ≧20 minutes at Visit 7, count (%) [2, 7]: 3 (4%)
Rebound insomnia frequency: patients with TST change from Baseline ≦−30 minutes at Visit 7, count (%) [2, 7]: 3 (4%)
Rebound insomnia frequency: patients with WASO change from Baseline ≧35 minutes at Visit 7, count (%) [2, 7]: 1 (1%)
WASO, Median ([2]; Doxepin HCl 3 mg group, Visit 7, Night 36 (discontinuation)): 50.5 min
WASO, Mean (SD) ([2]; Doxepin HCl 3 mg group, Visit 7, Night 36 (discontinuation, single-blind placebo after 35 nights of treatment)): 65.8 (48.72) minutes
WASO, Mean (SD) [2, 8]: 58.4 (42.76) minutes
WASO, Median [2, 8]: 48.8 min
WASO, Change from Baseline to Visit 7, Night 36, Median ([2]; Doxepin HCl 3 mg group): -22.0 min
WASO, Change from Baseline to Visit 7, Night 37, Median ([2]; Doxepin HCl 3 mg group): -20.8 min
WASO, Change from Baseline to Visit 7, Night 36, Mean (SD) ([2]; Doxepin HCl 3 mg group, 95% CI (−30.28, −6.57)): −18.4 (48.60) minutes
WASO, Change from Baseline to Visit 7, Night 37, Mean (SD) ([2]; Doxepin HCl 3 mg group, 95% CI (−35.26, −14.11)): −24.7 (43.02) minutes
WASO (rebound insomnia analysis), Median ([2]; Doxepin HCl 6 mg group): 72.5 min
WASO (rebound insomnia analysis), Mean (SD) ([2]; Doxepin HCl 6 mg group): 78.4 (40.37) minutes
Rebound insomnia frequency: patients with LPS change from Baseline ≧20 minutes at Visit 7, count (%) [2, 9]: 8 (12%)
Rebound insomnia frequency: patients with TST change from Baseline ≦−30 minutes at Visit 7, count (%) [2, 9]: 6 (9%)
Rebound insomnia frequency: patients with WASO change from Baseline ≧35 minutes at Visit 7, count (%) [2, 9]: 7 (10%)
Rebound insomnia frequency: patients with LPS change from Baseline ≧20 minutes at Visit 7, count (%) [2, 10]: 2 (3%)
Rebound insomnia frequency: patients with TST change from Baseline ≦−30 minutes at Visit 7, count (%) [2, 10]: 2 (3%)
Rebound insomnia frequency: patients with WASO change from Baseline ≧35 minutes at Visit 7, count (%) [2, 10]: 3 (4%)
WASO, Median ([2]; Doxepin HCl 6 mg group, Visit 7, Night 36 (discontinuation)): 46.0 min
WASO, Mean (SD) ([2]; Doxepin HCl 6 mg group, Visit 7, Night 36 (discontinuation, single-blind placebo after 35 nights of treatment)): 55.9 (40.26) minutes
WASO, Mean (SD) [2, 11]: 56.0 (42.68) minutes
WASO, Median [2, 11]: 49.0 min
WASO, Change from Baseline to Visit 7, Night 36, Median ([2]; Doxepin HCl 6 mg group): -16.5 min
WASO, Change from Baseline to Visit 7, Night 37, Median ([2]; Doxepin HCl 6 mg group): -20.0 min
WASO, Change from Baseline to Visit 7, Night 36, Mean (SD) ([2]; Doxepin HCl 6 mg group, 95% CI (−34.99, −12.27)): −23.6 (46.93) minutes
WASO, Change from Baseline to Visit 7, Night 37, Mean (SD) ([2]; Doxepin HCl 6 mg group, 95% CI (−36.26, −12.38)): −24.3 (47.41) minutes
SMILES: CN(C)CCC=C1c2ccccc2COc2ccccc21 [Doxepin, 11-(3-dimethylaminopropylidene)-6,11-dihydrodibenzo (b,e)oxepin]
8-hour WASO, Mean (SD) ([1]; doxepin 6 mg group, Baseline (single-blind placebo)): 65.0 (33.23) minutes
LPS (latency to persistent sleep, PSG), Mean (SD) ([1]; doxepin 6 mg group, Baseline): 39.1 (34.10) minutes
SE - Hour 8 (PSG), Mean (SD) ([1]; doxepin 6 mg group, Baseline): 76.4 (21.26) %
TST (8-hour PSG), Mean (SD) ([1]; doxepin 6 mg group, Baseline): 380.3 (43.09) minutes
8-hour WASO, Mean (SD) ([1]; doxepin 6 mg, Night 1 (primary), p<0.0001 vs placebo): 36.3 (26.14) minutes
SE (8-hour PSG), Mean (SD) [1, 3]: 87.6 (7.72) %
SE - Hour 8 (PSG), Mean (SD) [1, 3]: 88.4 (14.25) %
TST (8-hour PSG), Mean (SD) [1, 3]: 420.5 (37.07) minutes
8-hour WASO, Mean (SD) ([1]; doxepin 6 mg, Night 15, p 0.0023 vs placebo): 41.9 (29.67) minutes
SE (8-hour PSG), Mean (SD) [1, 4]: 85.7 (10.70) %
TST (8-hour PSG), Mean (SD) [1, 4]: 411.3 (51.34) minutes
LPS (PSG), Mean (SD) ([1]; doxepin 6 mg, Night 15, p 0.8315 vs placebo): 31.8 (36.57) minutes
SE (8-hour PSG), Mean (SD) [1, 5]: 87.3 (9.37) %
TST (8-hour PSG), Mean (SD) [1, 5]: 419.1 (44.98) minutes
8-hour WASO, Mean (SD) ([1]; doxepin 6 mg, Night 29, p 0.0012 vs placebo): 41.2 (37.91) minutes
SE - Hour 8 (PSG), Mean (SD) ([1]; doxepin 6 mg, Night 29, p 0.0034 vs placebo): 85.8 (19.66) %
LPS (PSG), Mean (SD) ([1]; doxepin 6 mg, Night 29, p 0.9989 vs placebo): 24.7 (21.48) minutes
